In PMC8018465, “Antimicrobial activities of a small molecule compound II-6s against oral streptococci” (Journal of Oral Microbiology, 2021):
In brackets after ≈: the same amount, converted by molar mass.

Tests used:
S. mutans [1] = assay: Bacterial drug resistance assay (MIC after repeated passages); type: cell-based, Streptococcus mutans UA159; settings: for change of MIC / induction of drug resistance after repeated exposure: 15 passages
Description: To examine whether S. mutans could develop drug resistance against II-6s, MIC measurements after repeated successive passages were performed to analyze the antimicrobial resistance, following a previous method. The MIC values of II-6s against S. mutans were tested as described above. After the initial MIC was determined, 20 µl of bacterial suspension in a well showing 1/2 MIC was mixed with 1,980 µl of BHI medium to eliminate the influence of residual drug. A volume of 50 µl of the resultant bacterial suspension was then inoculated onto a BHI agar plate followed by incubation at 37°C for 48 h. The colonies grown on the agar plate were again suspended in BHI broth. The overnight bacterial suspensions were diluted to a concentration of 1 × 10^7 CFU/ml for the next MIC test. The same procedure was repeatedly performed for 15 passages. An increase of four-fold or higher in MIC over the initial MIC was considered to be the standard for inducing resistance to an antibacterial agent. The assay was done in triplicates and repeated three times.

[2] = set-up: method as in PMID 29355409; settings: 0.12% CHX daily for a week, repeated every month; in 18 months; cited from earlier work
S. mutans biofilm = assay: Biofilm susceptibility assay (crystal violet); type: cell-based, Streptococcus mutans UA159; settings: 24 h; for MBIC: S. mutans biofilm formation, at least 90% inhibition; for MBRC: S. mutans one-day biofilm, at least 90% reduction
Description: (§1) Streptococcus mutans UA159, Streptococcus gordonii DL1 and Streptococcus sanguinis ATCC10556 were obtained from the State Key Laboratory of Oral Diseases (Sichuan University, Chengdu, China). All strains were routinely cultured in brain heart infusion broth (BHI; Difco, Sparks, MD) under anaerobic conditions (5% CO2) at 37°C. For biofilm formation, bacteria were cultured in BHI broth supplied with 1% sucrose (designated BHIS). The effect of II-6s on S. mutans, S. gordonii, and S. sanguinis biofilm was examined by the microdilution method described previously. S. mutans, S. gordonii, and S. sanguinis (1 × 10^7 CFU/ml) respectively, were cultured in BHIS broth and II-6s (0.98 to 500 μg/ml) in 96-well microtiter plates for 24 h. A parallel study was also performed with BHIS as a negative control. After incubation, the culture supernatant and agent were removed, and each well was gently washed three times with phosphate-buffered saline (PBS), then fixed the adherent biofilm was fixed with methanol for 15 min, and stained with 0.1% (wt/vol) crystal violet (Sigma) for 5 min. The excess crystal violet stain in each well was rinsed away with PBS until the blank control wells were colorless. Finally, 200 μl of 95% ethanol was added to each well to dissolve the crystal violet attached to the biofilm. The plate was shaken at room temperature for 30 min, and the absorbance at 595 nm was recorded. To examine the effects of II-6s on mature biofilm, bacterial suspensions were inoculated into a 96-well microtiter plate containing BHIS and incubated at 37°C for 24 h. After biofilm developed, the supernatant from each well was decanted and planktonic cells were removed by washing with sterile PBS. Fresh BHI broth containing II-6s (0.98 to 500 μg/ml) was added to the one-day biofilm, and the plate was further incubated for 24 h. The control wells contained BHIS broth without II-6s. Similarly, the biofilm was fixed, stained, washed, and quantified as described above. […] The experiment was performed in triplicates and repeated at least three times.

S. sanguinis biofilm = assay: Biofilm susceptibility assay (crystal violet); type: cell-based, Streptococcus sanguinis ATCC10556; settings: 24 h; for MBIC: S. sanguinis biofilm formation, at least 90% inhibition; for MBRC: S. sanguinis one-day biofilm, at least 90% reduction
Description: as §1

S. mutans [3] = assay: Bacterial susceptibility assay (microdilution, planktonic); type: cell-based, Streptococcus mutans UA159; settings: Streptococcus mutans
Description: Streptococcus mutans UA159, Streptococcus gordonii DL1 and Streptococcus sanguinis ATCC10556 were obtained from the State Key Laboratory of Oral Diseases (Sichuan University, Chengdu, China). All strains were routinely cultured in brain heart infusion broth (BHI; Difco, Sparks, MD) under anaerobic conditions (5% CO2) at 37°C. For biofilm formation, bacteria were cultured in BHI broth supplied with 1% sucrose (designated BHIS).
The minimum inhibitory concentration (MIC) and minimum bactericidal concentration (MBC) of II-6s against S. mutans, S. gordonii, and S. sanguinis were measured by a microdilution method in BHI as described previously. The bacterial inoculum for the experiment was adjusted to 1 × 10^7 colony-forming units (CFU)/ml for S. mutans, S. gordonii, and S. sanguinis based on the optical density at 600 nm (OD600) versus a CFU/ml graph of each bacterium. Bacterial suspension was added to 96-well microtiter plates which were supplemented with serially diluted concentrations of II-6s ranging from 0.98 to 500 μg/ml. Each plate also included CHX ranging from 0.98 to 500 μg/ml as a positive control, test bacteria and BHI broth as a negative control, BHI broth containing equivalent DMSO (0.5% to 0.001%, ν/ν) as a solvent control and a blank control. […] The lowest concentration of the test solutions that allowed no visible growth on a BHI agar plate was taken as MBC. The experiment was performed in triplicates and repeated at least three times.

S. gordonii biofilm = assay: Biofilm susceptibility assay (crystal violet); type: cell-based, Streptococcus gordonii DL1; settings: 24 h; for MBIC: S. gordonii biofilm formation, at least 90% inhibition; for MBRC: S. gordonii one-day biofilm, at least 90% reduction
Description: as §1

[4] = system: methicillin-resistant Staphylococcus aureus (MRSA); set-up: method as in PMID 30940910; settings: cited from earlier work
[5] = system: methicillin-susceptible S. aureus; set-up: method as in PMID 30940910; settings: cited from earlier work
[6] = S. mutans, planktonic, BHI medium

Row | SMILES | change of MIC / induction of drug resistance after repeated exposure (S. mutans [1]) | patients at high caries risk reduced to moderate or low risk [2] | MBIC (S. mutans biofilm) | MBRC (S. mutans biofilm) | MBIC (S. sanguinis biofilm) | MBRC (S. sanguinis biofilm) | MBC (S. mutans [3]; [6]) | MIC (S. mutans [3]; S. mutans, planktonic, BHI medium, read-out: MIC) | MBIC (S. gordonii biofilm) | MBRC (S. gordonii biofilm) | MIC (S. mutans [1]; Streptococcus mutans, read-out: MIC against S. mutans during passaging) | MIC (S. mutans [3]) | antimicrobial activity against MRSA [4] | antimicrobial activity against methicillin-susceptible S. aureus [5]
1 | [H]/N=C(\N/C(=N/[H])NCCCCCCNC(=N)NC(=N)Nc1ccc(Cl)cc1)Nc1ccc(Cl)cc1 [CHX, Chlorhexidine digluconate, reference compound] | increased by four times at the 15th passage | approximately 70% | 0.98 µg/mL | 62.50 µg/mL | 1.95 µg/mL | 3.91 µg/mL | 7.81 µg/mL | 1.95 µg/mL | 3.91 µg/mL | 15.63 µg/mL |  |  |  | 
2 | CC(C)(Cc1ccc2ccccc2c1)NC[C@H](O)CNc1cc(C(F)(F)F)cc(C(F)(F)F)c1 [II-6s, (S)-1-((3,5-bis(trifluoromethyl)phenyl)amino)-3-((2-methyl-1-(naphthalen-2-yl)propan-2-yl)amino)propan-2-ol] | did not induce drug resistance |  | 3.91 µg/mL | 62.50 µg/mL | 3.91 µg/mL | 3.91 µg/mL | 15.6 µg/mL (≈ 32.3 µM) |  | 3.91 µg/mL | 3.91 µg/mL | 3.91 µg/mL (≈ 8.07 µM) | 3.91 µg/mL (≈ 8.07 µM) | decent antimicrobial activity | decent antimicrobial activity
